Results taken from patent US10213427B2 (Incyte Corporation, priority 2010, dated 2019).

Target: FGFR3 enzyme (Millipore) (Homo sapiens (Human), UniProt P22607)
Experiment: FGFR3 Enzymatic Assay
Format: biochemical
Conditions: FRET peptide phosphorylation, 140 μM ATP
Protocol: The inhibitor potency of compounds of the invention was measured in an enzyme assay that measures peptide phosphorylation using FRET measurements to detect product formation. Inhibitors were serially diluted in DMSO and a volume of 0.5 μL was transferred to the wells of a 384-well plate. A 10 μL volume of FGFR3 enzyme (Millipore) diluted in assay buffer (50 mM HEPES, 10 mM MgCl2, 1 mM EGTA, 0.01% Tween-20, 5 mM DTT, pH 7.5) was added to the plate and pre-incubated for 5-10 minutes. Appropriate controls (enzyme blank and enzyme with no inhibitor) were included on the plate. […] The plate was incubated at 25° C. for 1 hr. […] The plate was allowed to equilibrate for ˜1 hr before scanning the wells on a PheraStar plate reader.
GraphPad prism3 was used to analyze the data. The IC50 values were derived by fitting the data to the equation for a sigmoidal dose-response with a variable slope. Y=Bottom+(Top−Bottom)/(1+10^((Log IC50−X)*HillSlope)) where X is the logarithm of concentration and Y is the response.

FGFR3 enzyme (Millipore), sequence (P22607 23-806): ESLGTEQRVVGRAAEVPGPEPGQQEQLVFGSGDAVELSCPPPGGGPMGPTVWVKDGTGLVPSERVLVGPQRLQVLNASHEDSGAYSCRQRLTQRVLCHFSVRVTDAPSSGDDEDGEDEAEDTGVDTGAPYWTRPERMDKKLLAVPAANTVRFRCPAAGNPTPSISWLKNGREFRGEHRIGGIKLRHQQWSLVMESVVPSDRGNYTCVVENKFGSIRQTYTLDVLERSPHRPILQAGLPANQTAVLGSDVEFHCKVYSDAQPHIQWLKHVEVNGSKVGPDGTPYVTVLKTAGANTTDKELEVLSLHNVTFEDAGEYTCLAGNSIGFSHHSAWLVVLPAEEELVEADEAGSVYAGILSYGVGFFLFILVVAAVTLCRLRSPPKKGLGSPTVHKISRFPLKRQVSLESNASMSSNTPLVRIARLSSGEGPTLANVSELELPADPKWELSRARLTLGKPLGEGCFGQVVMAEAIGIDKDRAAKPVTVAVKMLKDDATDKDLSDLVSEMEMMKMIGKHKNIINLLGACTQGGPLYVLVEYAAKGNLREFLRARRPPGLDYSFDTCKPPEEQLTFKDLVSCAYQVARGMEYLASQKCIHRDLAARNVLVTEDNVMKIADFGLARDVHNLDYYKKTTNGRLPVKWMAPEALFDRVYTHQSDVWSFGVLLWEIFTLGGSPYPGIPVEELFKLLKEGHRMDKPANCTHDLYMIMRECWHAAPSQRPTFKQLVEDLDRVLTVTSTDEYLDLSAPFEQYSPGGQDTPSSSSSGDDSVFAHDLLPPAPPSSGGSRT

IC50 [nM]	SMILES
< 10	O=C(NCC(F)(F)F)Nc1cccc(-c2cnc3cc(-c4cnn(C5CCN(C(=O)N6CCCC6)CC5)c4)cnn23)c1 [Example 36, N-[3-(7-{1-[1-(Pyrrolidin-1-ylcarbonyl)piperidin-4-yl]-1H-pyrazol-4-yl}imidazo[1,2-b]pyridazin-3-yl)phenyl]-N′-(2,2,2-trifluoroethyl)urea]
< 10	O=C(NCC(F)(F)F)Nc1cccc(-c2cnc3cc(-c4cnn(C5CCN(C(=O)N6CCOCC6)CC5)c4)cnn23)c1 [Example 37, N-[3-(7-{1-[1-(morpholin-4-ylcarbonyl)piperidin-4-yl]-1H-pyrazol-4-yl}imidazo[1,2-b]pyridazin-3-yl)phenyl]-N′-(2,2,2-trifluoroethyl)urea]
< 10	O=C(NCC(F)(F)F)Nc1cccc(-c2cnc3cc(-c4cnn(C5CCN(C(=O)Nc6cccnc6)CC5)c4)cnn23)c1 [Example 38, N-Pyridin-3-yl-4-(4-{3-[3-({[(2,2,2-trifluoroethyl)amino]carbonyl}amino)phenyl]imidazo[1,2-b]pyridazin-7-yl}-1H-pyrazol-1-yl)piperidine-1-carboxamide]
< 10	O=C(NCC(F)(F)F)Nc1cccc(-c2cnc3cc(-c4cnn(C5CCN(C(=O)NCc6ccccc6)CC5)c4)cnn23)c1 [Example 39, N-Benzyl-4-(4-{3-[3-({[(2,2,2-trifluoroethyl)amino]carbonyl}amino)phenyl]imidazo[1,2-b]pyridazin-7-yl}-1H-pyrazol-1-yl)piperidine-1-carboxamide]
< 10	O=C(NCC(F)(F)F)Nc1cccc(-c2cnc3cc(-c4cnn(C5CCN(C(=O)NCC6CCCO6)CC5)c4)cnn23)c1 (stereo not shown) [Example 40, N-(tetrahydrofuran-2-ylmethyl)-4-(4-{3-[3-({[(2,2,2-trifluoroethyl)amino]carbonyl}amino)phenyl]imidazo[1,2-b]pyridazin-7-yl}-1H-pyrazol-1-yl)piperidine-1-carboxamide]
< 10	O=C(NCC(F)(F)F)Nc1cccc(-c2cnc3cc(-c4cnn(C5CCN(C(=O)CC6CC6)CC5)c4)cnn23)c1 [Example 41, N-[3-(7-{1-[1-(Cyclopropylacetyl)piperidin-4-yl]-1H-pyrazol-4-yl}imidazo[1,2-b]pyridazin-3-yl)phenyl]-N′-(2,2,2-trifluoroethyl)urea]
< 10	CC1(C(=O)N2CCC(n3cc(-c4cnn5c(-c6cccc(NC(=O)NCC(F)(F)F)c6)cnc5c4)cn3)CC2)CC1 [Example 42, N-{3-[7-(1-{1-[(1-Methylcyclopropyl)carbonyl]piperidin-4-yl}-1H-pyrazol-4-yl)imidazo[1,2-b]pyridazin-3-yl]phenyl}-N′-(2,2,2-trifluoroethyl)urea]
< 10	O=C(NCC(F)(F)F)Nc1cccc(-c2cnc3cc(-c4cnn(C5CCN(C(=O)C6(O)CC6)CC5)c4)cnn23)c1 [Example 43, N-{3-[7-(1-{1-[(1-hydroxycyclopropyl)carbonyl]piperidin-4-yl}-1H-pyrazol-4-yl)imidazo[1,2-b]pyridazin-3-yl]phenyl}-N′-(2,2,2-trifluoroethyl)urea]
< 10	N#CCC(=O)N1CCC(n2cc(-c3cnn4c(-c5cccc(NC(=O)NCC(F)(F)F)c5)cnc4c3)cn2)CC1 [Example 44, N-[3-(7-{1-[1-(Cyanoacetyl)piperidin-4-yl]-1H-pyrazol-4-yl}imidazo[1,2-b]pyridazin-3-yl)phenyl]-N′-(2,2,2-trifluoroethyl)urea]
< 10	N#CC1(C(=O)N2CCC(n3cc(-c4cnn5c(-c6cccc(NC(=O)NCC(F)(F)F)c6)cnc5c4)cn3)CC2)CC1 [Example 45, N-{3-[7-(1-{1-[(1-Cyanocyclopropyl)carbonyl]piperidin-4-yl}-1H-pyrazol-4-yl)imidazo[1,2-b]pyridazin-3-yl]phenyl}-N′-(2,2,2-trifluoroethyl)urea]
< 10	O=C(NCC(F)(F)F)Nc1cccc(-c2cnc3cc(-c4cnn(C5CCN(C(=O)CCC6CC6)CC5)c4)cnn23)c1 [Example 46, N-[3-(7-{1-[1-(3-Cyclopropylpropanoyl)piperidin-4-yl]-1H-pyrazol-4-yl}imidazo[1,2-b]pyridazin-3-yl)phenyl]-N′-(2,2,2-trifluoroethyl)urea]
< 10	O=C(NCC(F)(F)F)Nc1cccc(-c2cnc3cc(-c4cnn(C5CCN(C(=O)C6CC(O)C6)CC5)c4)cnn23)c1 (stereo not shown) [Example 47, N-{3-[7-(1-{1-[(3-hydroxycyclobutyl)carbonyl]piperidin-4-yl}-1H-pyrazol-4-yl)imidazo[1,2-b]pyridazin-3-yl]phenyl}-N′-(2,2,2-trifluoroethyl)urea]
< 10	O=C(NCC(F)(F)F)Nc1cccc(-c2cnc3cc(-c4cnn(C5CCN(C(=O)C6CCOC6)CC5)c4)cnn23)c1 (stereo not shown) [Example 48, N-[3-(7-{1-[1-(tetrahydrofuran-3-ylcarbonyl)piperidin-4-yl]-1H-pyrazol-4-yl}imidazo[1,2-b]pyridazin-3-yl)phenyl]-N′-(2,2,2-trifluoroethyl)urea]
< 10	O=C(NCC(F)(F)F)Nc1cccc(-c2cnc3cc(-c4cnn(C5CCN(C(=O)C(O)C(F)(F)F)CC5)c4)cnn23)c1 (stereo not shown) [Example 49, N-(2,2,2-trifluoroethyl)-N′-[3-(7-{1-[1-(3,3,3-trifluoro-2-hydroxypropanoyl)piperidin-4-yl]-1H-pyrazol-4-yl}imidazo[1,2-b]pyridazin-3-yl)phenyl]urea]
< 10	O=C(NCC(F)(F)F)Nc1cccc(-c2cnc3cc(-c4cnn(C5CCN(C(=O)CC6CCCO6)CC5)c4)cnn23)c1 (stereo not shown) [Example 50, N-[3-(7-{1-[1-(tetrahydrofuran-2-ylacetyl)piperidin-4-yl]-1H-pyrazol-4-yl}imidazo[1,2-b]pyridazin-3-yl)phenyl]-N′-(2,2,2-trifluoroethyl)urea]
< 10	O=C(NCC(F)(F)F)Nc1cccc(-c2cnc3cc(-c4ccc(N5CCN(C(=O)N6CCCC6)CC5)nc4)cnn23)c1 [Example 53, N-[3-(7-{6-[4-(pyrrolidin-1-ylcarbonyl)piperazin-1-yl]pyridin-3-yl}imidazo[1,2-b]pyridazin-3-yl)phenyl]-N′-(2,2,2-trifluoroethyl)urea]
< 10	CC(C(=O)NC1CC1)n1cc(-c2cnn3c(-c4cccc(NC(=O)NCC(F)(F)F)c4)cnc3c2)cn1 (stereo not shown) [Example 54, N-Cyclopropyl-2-(4-{3-[3-({[(2,2,2-trifluoroethyl)amino]carbonyl}amino)phenyl]imidazo[1,2-b]pyridazin-7-yl}-1H-pyrazol-1-yl)propanamide]
< 10	CNC(=O)C(C)n1cc(-c2cnn3c(-c4cccc(NC(=O)NCC(F)(F)F)c4)cnc3c2)cn1 (stereo not shown) [Example 55, N-Methyl-2-(4-{3-[3-({[(2,2,2-trifluoroethyl)amino]carbonyl}amino)phenyl]imidazo[1,2-b]pyridazin-7-yl}-1H-pyrazol-1-yl)propanamide]
< 10	CC(C(=O)N(C)C)n1cc(-c2cnn3c(-c4cccc(NC(=O)NCC(F)(F)F)c4)cnc3c2)cn1 (stereo not shown) [Example 56, N,N-Dimethyl-2-(4-{3-[3-({[(2,2,2-trifluoroethyl)amino]carbonyl}amino)phenyl]imidazo[1,2-b]pyridazin-7-yl}-1H-pyrazol-1-yl)propanamide]
< 10	CC(C(=O)NC1CCOCC1)n1cc(-c2cnn3c(-c4cccc(NC(=O)NCC(F)(F)F)c4)cnc3c2)cn1 (stereo not shown) [Example 57, N-(Tetrahydro-2H-pyran-4-yl)-2-(4-{3-[3-({[(2,2,2-trifluoroethyl)amino]carbonyl}amino)phenyl]imidazo[1,2-b]pyridazin-7-yl}-1H-pyrazol-1-yl)propanamide]
< 10	CC(C(=O)N1CCOCC1)n1cc(-c2cnn3c(-c4cccc(NC(=O)NCC(F)(F)F)c4)cnc3c2)cn1 (stereo not shown) [Example 58, N-(3-{7-[1-(1-Methyl-2-morpholin-4-yl-2-oxoethyl)-1H-pyrazol-4-yl]imidazo[1,2-b]pyridazin-3-yl}phenyl)-N′-(2,2,2-trifluoroethyl)urea]
< 10	CC(C(=O)N1CCN(C)CC1)n1cc(-c2cnn3c(-c4cccc(NC(=O)NCC(F)(F)F)c4)cnc3c2)cn1 (stereo not shown) [Example 60, N-[3-(7-{1-[1-Methyl-2-(4-methylpiperazin-1-yl)-2-oxoethyl]-1H-pyrazol-4-yl}imidazo[1,2-b]pyridazin-3-yl)phenyl]-N′-(2,2,2-trifluoroethyl)urea]
< 10	CC(C(=O)NCc1ccccn1)n1cc(-c2cnn3c(-c4cccc(NC(=O)NCC(F)(F)F)c4)cnc3c2)cn1 (stereo not shown) [Example 61, N-(Pyridin-2-ylmethyl)-2-(4-{3-[3-({[(2,2,2-trifluoroethyl)amino]carbonyl}amino)phenyl]imidazo[1,2-b]pyridazin-7-yl}-1H-pyrazol-1-yl)propanamide]

SMILES	IC50 [nM]
CC(C(=O)N(C)C1CCOCC1)n1cc(-c2cnn3c(-c4cccc(NC(=O)NCC(F)(F)F)c4)cnc3c2)cn1 (stereo not shown) [Example 59, N-Methyl-N-(tetrahydro-2H-pyran-4-yl)-2-(4-{3-[3-({[(2,2,2-trifluoroethyl)amino]carbonyl}amino)phenyl]imidazo[1,2-b]pyridazin-7-yl}-1H-pyrazol-1-yl)propanamide]	< 10
CC(C(=O)NCCN1CCCC1=O)n1cc(-c2cnn3c(-c4cccc(NC(=O)NCC(F)(F)F)c4)cnc3c2)cn1 (stereo not shown) [Example 62, N-[2-(2-Oxopyrrolidin-1-yl)ethyl]-2-(4-{3-[3-({[(2,2,2-trifluoroethyl)amino]carbonyl}amino)phenyl]imidazo[1,2-b]pyridazin-7-yl}-1H-pyrazol-1-yl)propanamide]	< 10
